US8772307B2, “Substituted spiro compounds and their use for producing pain-relief medicaments” (Gruenenthal GmbH, priority 2005, dated 2014)

Columns and labels:
[1] = target: T1, rat-species vanilloid receptor 1 (VR1/TRPV1) (Rattus norvegicus, UniProt O35433); experiment: Functional testing on vanilloid receptor 1 (VR1/TRPV1): FLIPR Ca2+ inflow assay in rat dorsal root ganglia cells (% activation / % inhibition vs capsaicin); assay type: cell-based; conditions: for inhibition at 10 µM: inhibition compared to 10 μM CP (capsaicin); for activation at 10 µM: stimulation compared to 10 μM CP (capsaicin); for IC50: capsaicin (CAP) stimulus, average
T1 construct: endogenous in cells; host or cells: primary cells dissociated from rat dorsal root ganglia (DRG)
In short: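 Rat dorsal root ganglion cells, dissociated with collagenase and trypsin, were plated at 3×10^5/mL on laminin-coated plates in NGF-containing HAMS F12 and cultured 2-3 days at 37° C. Ca2+ inflow read by Fluo-4 fluorescence on FLIPR; test compounds at 10 μM referenced to 10 μM capsaicin.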

vanilloid receptor (VR1) = target: T2, vanilloid receptor (VR1) (Homo sapiens, UniProt Q8NER1); experiment: Functional testing on vanilloid receptor (VR1): FLIPR Ca2+ inflow assay in CHO K1 cells stably transfected with the VR1 gene; assay type: cell-based; conditions: for inhibition at 10 µM: CHO-K1, inhibition compared to 10 μM CP (capsaicin); for activation at 10 µM: CHO-K1, stimulation compared to 10 μM CP (capsaicin); for IC50: capsaicin (CAP) stimulus, average
T2 construct: expressed in transfected cells; host or cells: CHO K1 cells (ECACC), stably transfected
In short: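 CHO K1 cells stably expressing VR1, loaded with Fluo-4 (2 μM, 30 min, 37° C); peak Ca²⁺ fluorescence read on FLIPR. Compound (10 μM) added first, agonism as % of 10 μM capsaicin signal; after 5 min, 100 nM capsaicin added, % inhibition calculated relative to maximal inhibition with 10 μM capsaicin.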

T2 sequence (Q8NER1 whole entry): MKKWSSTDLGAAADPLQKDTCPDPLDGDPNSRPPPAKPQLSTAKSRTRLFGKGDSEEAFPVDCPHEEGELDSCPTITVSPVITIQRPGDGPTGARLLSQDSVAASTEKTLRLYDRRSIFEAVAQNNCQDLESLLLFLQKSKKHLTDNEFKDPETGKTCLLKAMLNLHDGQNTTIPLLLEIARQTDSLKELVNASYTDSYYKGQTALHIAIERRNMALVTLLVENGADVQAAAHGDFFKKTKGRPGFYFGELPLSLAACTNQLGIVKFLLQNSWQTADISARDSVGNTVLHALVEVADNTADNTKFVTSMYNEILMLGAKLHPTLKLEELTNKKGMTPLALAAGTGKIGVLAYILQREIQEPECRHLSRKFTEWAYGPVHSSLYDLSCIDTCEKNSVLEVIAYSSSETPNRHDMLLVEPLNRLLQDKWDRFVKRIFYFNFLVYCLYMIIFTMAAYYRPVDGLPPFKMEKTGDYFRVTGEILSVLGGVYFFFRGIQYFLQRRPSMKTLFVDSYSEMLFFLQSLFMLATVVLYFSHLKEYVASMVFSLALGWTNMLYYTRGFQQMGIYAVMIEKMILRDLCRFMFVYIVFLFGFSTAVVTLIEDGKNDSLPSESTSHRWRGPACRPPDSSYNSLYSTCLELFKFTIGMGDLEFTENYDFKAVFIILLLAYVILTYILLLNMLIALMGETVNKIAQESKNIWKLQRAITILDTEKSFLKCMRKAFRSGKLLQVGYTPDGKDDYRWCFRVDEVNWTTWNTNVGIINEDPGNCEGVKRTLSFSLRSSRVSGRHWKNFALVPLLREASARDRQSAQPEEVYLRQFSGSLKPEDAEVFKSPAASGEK
T1 sequence (O35433 whole entry): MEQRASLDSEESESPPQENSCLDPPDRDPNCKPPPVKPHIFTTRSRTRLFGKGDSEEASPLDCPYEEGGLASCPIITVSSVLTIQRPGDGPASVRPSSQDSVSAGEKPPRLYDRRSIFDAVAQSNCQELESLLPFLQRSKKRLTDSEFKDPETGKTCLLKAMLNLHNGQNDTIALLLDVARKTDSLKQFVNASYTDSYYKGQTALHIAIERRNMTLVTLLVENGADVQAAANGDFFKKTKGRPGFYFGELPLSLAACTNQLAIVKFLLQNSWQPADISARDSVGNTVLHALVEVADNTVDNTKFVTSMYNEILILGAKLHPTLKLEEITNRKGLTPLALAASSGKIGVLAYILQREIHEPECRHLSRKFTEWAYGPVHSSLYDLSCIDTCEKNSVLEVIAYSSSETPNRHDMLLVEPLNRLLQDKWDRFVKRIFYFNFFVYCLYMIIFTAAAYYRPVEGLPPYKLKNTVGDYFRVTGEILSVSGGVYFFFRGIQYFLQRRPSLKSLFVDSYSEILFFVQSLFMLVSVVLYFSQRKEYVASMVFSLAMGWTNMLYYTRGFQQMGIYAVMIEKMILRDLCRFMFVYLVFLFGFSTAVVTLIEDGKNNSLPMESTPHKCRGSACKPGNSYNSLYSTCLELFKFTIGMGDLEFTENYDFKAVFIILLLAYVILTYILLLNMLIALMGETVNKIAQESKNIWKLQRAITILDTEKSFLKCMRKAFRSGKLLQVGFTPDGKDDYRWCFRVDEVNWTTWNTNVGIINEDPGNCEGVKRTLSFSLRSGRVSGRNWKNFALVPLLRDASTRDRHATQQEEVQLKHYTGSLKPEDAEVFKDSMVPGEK

`COc1cccc(C2=NOC3(CCN(C(=O)Nc4ccc(C(C)(C)C)cc4)CC3)C2)c1` [Compound 140, 3-(3-methoxyphenyl)-1-oxa-2,8-diazaspiro[4.5]dec-2-ene-8-carboxylic acid-(4-tert-butylphenyl)amide] showed an inhibition at 10 µM [1] of 99.2%, an activation at 10 µM [1] of 1.4% and an inhibition at 10 µM (vanilloid receptor (VR1)) of 9.67%. The activation at 10 µM (vanilloid receptor (VR1)) was 9.37%.

For `CC1CN(C(=O)Nc2ccc(C(C)(C)C)cc2)CCC12CC(c1ccccc1)=NO2` (centres unmarked) [Compound 369, N-(4-tert-butylphenyl)-6-methyl-3-phenyl-1-oxa-2,8-diazaspiro[4.5]dec-2-ene-8-carboxamide], the IC50 [1] was 175 nM, the inhibition at 10 µM [1] was 110% and the activation at 10 µM [1] was 0%. For the same molecule, the inhibition at 10 µM (vanilloid receptor (VR1)) was 19%, the activation at 10 µM (vanilloid receptor (VR1)) was -1% and the IC50 (vanilloid receptor (VR1)) was 1070 nM.

In the case of `CC(C)(C)c1ccc(/C=C/C(=O)N2CCC3(CC2)CC(c2ccccc2)=NO3)c(Br)c1` [Compound 368, (E)-3-(2-bromo-4-tert-butylphenyl)-1-(3-phenyl-1-oxa-2,8-diazaspiro[4.5]dec-2-en-8-yl)prop-2-en-1-one], the inhibition at 10 µM [1] is reported as 83%, the activation at 10 µM [1] is reported as 0% and the inhibition at 10 µM (vanilloid receptor (VR1)) is reported as 66%. For the same molecule, the activation at 10 µM (vanilloid receptor (VR1)) was 0%.

For `COc1cccc(C2=NOC3(CCN(C(=O)Nc4ccc(OC(F)(F)F)cc4)CC3)C2)c1` [Compound 244, 3-(3-methoxyphenyl)-1-oxa-2,8-diazaspiro[4.5]dec-2-ene-8-carboxylic acid-(4-trifluoromethoxyphenyl)amide], the inhibition at 10 µM [1] was 89.1%, the activation at 10 µM [1] was 9.79% and the inhibition at 10 µM (vanilloid receptor (VR1)) was 3.09%. For the same molecule, the activation at 10 µM (vanilloid receptor (VR1)) was -0.28%.

Molecule `Cc1ccc(C2=NOC3(CCN(C(=S)NC4CCCC4)CC3)C2)cc1` [Compound 290, 3-p-tolyl-1-oxa-2,8-diazaspiro[4.5]dec-2-ene-8-thiocarboxylic acid cyclopentylamide] has an inhibition at 10 µM [1] of 48.4%, an activation at 10 µM [1] of -0.47% and an inhibition at 10 µM (vanilloid receptor (VR1)) of -7.84%. For the same molecule, the activation at 10 µM (vanilloid receptor (VR1)) was -0.28%.

With `COc1cccc(C2=NOC3(CCN(C(=O)Nc4ccc(SC)cc4)CC3)C2)c1` [Compound 65, 3-(3-methoxyphenyl)-1-oxa-2,8-diazaspiro[4.5]dec-2-ene-8-carboxylic acid-(4-methylsulphanylphenyl)amide] the inhibition at 10 µM [1] was 80.5%, the activation at 10 µM [1] was 0.08% and the inhibition at 10 µM (vanilloid receptor (VR1)) was -10.8%. For the same molecule, the activation at 10 µM (vanilloid receptor (VR1)) was -0.07%.

`COc1cccc(C2=NOC3(CCN(C(=S)Nc4ccc(C(C)(C)C)cc4)CC3)C2)c1` [Compound 278, 3-(3-methoxyphenyl)-1-oxa-2,8-diazaspiro[4.5]dec-2-ene-8-thiocarboxylic acid-(4-tert-butylphenyl)amide] was tested, and the inhibition at 10 µM [1] was 88.1%, the activation at 10 µM [1] was 0.73% and the inhibition at 10 µM (vanilloid receptor (VR1)) was 28.1%. The activation at 10 µM (vanilloid receptor (VR1)) was 0.66%.

Molecule `CC(C)c1ccc(NC(=O)N2CCC3(CC2)CC(c2ccc(C(C)(C)C)cc2)=NO3)cc1` [Compound 80, 3-(4-tert-butylphenyl)-1-oxa-2,8-diazaspiro[4.5]dec-2-ene-8-carboxylic acid-(4-isopropylphenyl)amide] has an inhibition at 10 µM [1] of 62.1%, an activation at 10 µM [1] of -0.47% and an inhibition at 10 µM (vanilloid receptor (VR1)) of 3.6%. The activation at 10 µM (vanilloid receptor (VR1)) was 0.89%.

In the case of `O=C(/C=C/c1ccc(C(F)(F)F)nc1N1CCCCC1)N1CCC2(CC1)CC(c1ccccc1)=NO2` [Compound 355, (E)-1-(3-phenyl-1-oxa-2,8-diazaspiro[4.5]dec-2-en-8-yl)-3-(2-(piperidin-1-yl)-6-(trifluoromethyl)pyridin-3-yl)prop-2-en-1-one], the inhibition at 10 µM [1] is reported as 98%, the activation at 10 µM [1] is reported as 0% and the inhibition at 10 µM (vanilloid receptor (VR1)) is reported as 63%. The activation at 10 µM (vanilloid receptor (VR1)) was 0%.

`COc1cccc(C2=NOC3(CCN(C(=O)Nc4ccc(C(F)(F)F)cc4)CC3)C2)c1` [Compound 210, 3-(3-methoxyphenyl)-1-oxa-2,8-diazaspiro[4.5]dec-2-ene-8-carboxylic acid-(4-trifluoromethylphenyl)amide] showed an inhibition at 10 µM [1] of 98%, an activation at 10 µM [1] of 0.22% and an inhibition at 10 µM (vanilloid receptor (VR1)) of 7.12%. For the same molecule, the activation at 10 µM (vanilloid receptor (VR1)) was -0.21%.

`CC1CN(C(=O)Nc2ccc(C(C)(C)C)cc2)CCC12CC(c1ccccc1F)=NO2` (centres unmarked) [Compound 364, N-(4-tert-butylphenyl)-3-(2-fluorophenyl)-6-methyl-1-oxa-2,8-diazaspiro[4.5]dec-2-ene-8-carboxamide] gave an inhibition at 10 µM [1] of 106%, an activation at 10 µM [1] of 4% and an inhibition at 10 µM (vanilloid receptor (VR1)) of 50%. It also gave an activation at 10 µM (vanilloid receptor (VR1)) of -1%.

Molecule `O=C(Nc1ccccc1)N1CCC2(CC1)CC(c1ccc(Cl)cc1)=NO2` [Compound 3, 3-(4-chlorophenyl)-1-oxa-2,8-diazaspiro[4.5]dec-2-ene-8-carboxylic acid phenylamide] has an inhibition at 10 µM [1] of 43.8%, an activation at 10 µM [1] of -0.73% and an inhibition at 10 µM (vanilloid receptor (VR1)) of 13.4%. It also gave an activation at 10 µM (vanilloid receptor (VR1)) of 0.01%.

`CC(C)(C)c1ccc(NC(=O)N2CCC3(CC2)CC(c2cccc(F)c2)=NO3)cc1` [Compound 351, N-(4-tert-butylphenyl)-3-(3-fluorophenyl)-1-oxa-2,8-diazaspiro[4.5]dec-2-ene-8-carboxamide] was tested, and the inhibition at 10 µM [1] was 101%, the activation at 10 µM [1] was 6% and the inhibition at 10 µM (vanilloid receptor (VR1)) was 83%. For the same molecule, the activation at 10 µM (vanilloid receptor (VR1)) was 3%.

In the case of `COc1cccc(C2=NOC3(CCN(C(=O)/C=C/c4ccc(C(F)(F)F)nc4N4CCOCC4)CC3)C2)c1` [Compound 342, (E)-1-(3-(3-methoxyphenyl)-1-oxa-2,8-diazaspiro[4.5]dec-2-en-8-yl)-3-(2-morpholino-6-(trifluoromethyl)pyridin-3-yl)prop-2-en-1-one], the IC50 [1] is reported as 478 nM, the inhibition at 10 µM [1] is reported as 60% and the activation at 10 µM [1] is reported as 0%. The inhibition at 10 µM (vanilloid receptor (VR1)) was 53%, the activation at 10 µM (vanilloid receptor (VR1)) was 0% and the IC50 (vanilloid receptor (VR1)) was 1550 nM.

`COc1cccc(C2=NOC3(CCN(C(=O)Nc4ccc(C)cc4)CC3)C2)c1` [Compound 146, 3-(3-methoxyphenyl)-1-oxa-2,8-diazaspiro[4.5]dec-2-ene-8-carboxylic acid p-tolylamide] showed an inhibition at 10 µM [1] of 58%, an activation at 10 µM [1] of -0.13% and an inhibition at 10 µM (vanilloid receptor (VR1)) of 9.95%. It also gave an activation at 10 µM (vanilloid receptor (VR1)) of 0.29%.

`COc1cccc(C2=NOC3(CCN(C(=O)Nc4cccc(F)c4)CC3)C2)c1` [Compound 174, 3-(3-methoxyphenyl)-1-oxa-2,8-diazaspiro[4.5]dec-2-ene-8-carboxylic acid-(3-fluorophenyl)amide] gave an inhibition at 10 µM [1] of 47.8%, an activation at 10 µM [1] of -0.28% and an inhibition at 10 µM (vanilloid receptor (VR1)) of -25%. It also gave an activation at 10 µM (vanilloid receptor (VR1)) of 5.9%.

`CC(C)(C)c1ccc(CCC(=O)N2CCC3(CC2)CC(c2ccccc2)=NO3)cc1` [Compound 350, 3-(4-tert-butylphenyl)-1-(3-phenyl-1-oxa-2,8-diazaspiro[4.5]dec-2-en-8-yl)propan-1-one] showed an inhibition at 10 µM [1] of 81%, an activation at 10 µM [1] of 1% and an inhibition at 10 µM (vanilloid receptor (VR1)) of -4%. For the same molecule, the activation at 10 µM (vanilloid receptor (VR1)) was 0%.

`O=C(Nc1cccc(Br)c1)N1CCC2(CC1)CC(c1ccccc1)=NO2` [Compound 193, 3-phenyl-1-oxa-2,8-diazaspiro[4.5]dec-2-ene-8-carboxylic acid-(3-bromophenyl)amide] was tested, and the inhibition at 10 µM [1] was 43.6%, the activation at 10 µM [1] was -0.17% and the inhibition at 10 µM (vanilloid receptor (VR1)) was -2.64%. For the same molecule, the activation at 10 µM (vanilloid receptor (VR1)) was 0.11%.

`COc1cc(C2=NOC3(CCN(C(=O)Nc4ccc(C(C)(C)C)cc4)CC3)C2)ccc1Cl` [Compound 378, N-(4-tert-butylphenyl)-3-(4-chloro-3-methoxyphenyl)-1-oxa-2,8-diazaspiro[4.5]dec-2-ene-8-carboxamide] showed an inhibition at 10 µM [1] of 99%, an activation at 10 µM [1] of 33% and an inhibition at 10 µM (vanilloid receptor (VR1)) of 81%. For the same molecule, the activation at 10 µM (vanilloid receptor (VR1)) was 42%.

Molecule `CC(C)(C)c1ccc(NC(=O)N2CCC3(CC2)CC(c2ccc(Cl)cc2)=NO3)cc1` [Compound 142, 3-(4-chlorophenyl)-1-oxa-2,8-diazaspiro[4.5]dec-2-ene-8-carboxylic acid-(4-tert-butylphenyl)amide] has an inhibition at 10 µM [1] of 63%, an activation at 10 µM [1] of -0.2% and an inhibition at 10 µM (vanilloid receptor (VR1)) of -18.8%. It also gave an activation at 10 µM (vanilloid receptor (VR1)) of -0.07%.

`COc1cccc(C2=NOC3(CCN(C(=O)Nc4cccc(Br)c4)CC3)C2)c1` [Compound 192, 3-(3-methoxyphenyl)-1-oxa-2,8-diazaspiro[4.5]dec-2-ene-8-carboxylic acid-(3-bromophenyl)amide] showed an inhibition at 10 µM [1] of 52.1%, an activation at 10 µM [1] of -0.07% and an inhibition at 10 µM (vanilloid receptor (VR1)) of -6.74%. It also gave an activation at 10 µM (vanilloid receptor (VR1)) of -0.04%.

`COc1cccc(C2=NOC3(CCN(C(=O)NCCc4ccccc4)CC3)C2)c1` [Compound 122, 3-(3-methoxyphenyl)-1-oxa-2,8-diazaspiro[4.5]dec-2-ene-8-carboxylic acid phenethylamide] was tested, and the inhibition at 10 µM [1] was 49.2%, the activation at 10 µM [1] was -0.47% and the inhibition at 10 µM (vanilloid receptor (VR1)) was -13.1%. The activation at 10 µM (vanilloid receptor (VR1)) was 0.07%.

`COc1cccc(C2=NOC3(CCN(C(=O)Nc4cc(C(F)(F)F)ccc4Cl)CC3)C2)c1` [Compound 221, 3-(3-methoxyphenyl)-1-oxa-2,8-diazaspiro[4.5]dec-2-ene-8-carboxylic acid-(2-chloro-5-trifluoromethylphenyl)amide] was tested, and the inhibition at 10 µM [1] was 72.8%, the activation at 10 µM [1] was 0.95% and the inhibition at 10 µM (vanilloid receptor (VR1)) was -11.6%. For the same molecule, the activation at 10 µM (vanilloid receptor (VR1)) was -0.04%.

Molecule `Cc1ccc(C2=NOC3(CCN(C(=O)Nc4cc(C(F)(F)F)ccc4Cl)CC3)C2)cc1` [Compound 225, 3-p-tolyl-1-oxa-2,8-diazaspiro[4.5]dec-2-ene-8-carboxylic acid-(2-chloro-5-trifluoromethylphenyl)amide] has an inhibition at 10 µM [1] of 47.8%, an activation at 10 µM [1] of -0.47% and an inhibition at 10 µM (vanilloid receptor (VR1)) of -4.5%. The activation at 10 µM (vanilloid receptor (VR1)) was 0.31%.

`COc1cccc(NC(=O)N2CCC3(CC2)CC(c2ccccc2)=NO3)c1` [Compound 205, 3-phenyl-1-oxa-2,8-diazaspiro[4.5]dec-2-ene-8-carboxylic acid-(3-methoxyphenyl)amide] gave an inhibition at 10 µM [1] of 39.9%, an activation at 10 µM [1] of 0.15% and an inhibition at 10 µM (vanilloid receptor (VR1)) of -23.9%. For the same molecule, the activation at 10 µM (vanilloid receptor (VR1)) was 0.33%.
